Measurements as given in PMC5541372 (Biochemistry, 2017).

Target: T1, NOV2 (Novosphingobium aromaticivorans, UniProt Q2G4H8)
T1 sequence (Q2G4H8 1-497): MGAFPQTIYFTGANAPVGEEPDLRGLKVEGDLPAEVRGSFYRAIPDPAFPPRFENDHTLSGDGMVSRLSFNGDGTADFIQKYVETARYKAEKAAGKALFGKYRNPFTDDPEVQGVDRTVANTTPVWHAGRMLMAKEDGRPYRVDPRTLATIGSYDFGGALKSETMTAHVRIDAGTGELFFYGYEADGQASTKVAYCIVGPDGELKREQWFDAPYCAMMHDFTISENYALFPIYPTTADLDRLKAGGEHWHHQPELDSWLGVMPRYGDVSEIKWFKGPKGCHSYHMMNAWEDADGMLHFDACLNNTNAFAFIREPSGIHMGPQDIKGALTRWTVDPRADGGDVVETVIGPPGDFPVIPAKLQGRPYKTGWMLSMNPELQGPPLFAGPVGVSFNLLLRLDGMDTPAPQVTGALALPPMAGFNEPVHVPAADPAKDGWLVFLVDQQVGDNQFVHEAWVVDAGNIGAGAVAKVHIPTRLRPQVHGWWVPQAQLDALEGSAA
Assay: EPR of Fe-NO adduct and […] Mössbauer
Assay type: binding
Conditions: anaerobic, NO present for EPR

| SMILES | EPR of Fe-NO adduct and 57Fe Mössbauer (4-10 equiv substrate, pH 8.5 or 7.5) | EPR of Fe-NO adduct and 57Fe Mössbauer (4 equiv substrate, pH 8.5) |
| --- | --- | --- |
| Oc1cc(O)cc(/C=C/c2ccc(O)c(O)c2)c1 [piceatannol] | nearly all active sites had substrate bound |  |
| Oc1ccc(/C=C/c2cc(O)cc(O)c2)cc1 [resveratrol] |  | The resveratrol ES+NO of NOV2 showed EPR spectra (Figure 5D) similar to those with piceatannol |
